Laboratory results as given in patent US6914045B2, “Glycopeptide antibiotics” (Wyeth Holdings Corporation, priority 2001, dated 2005).

How the values were obtained:
Enterococcus sp. = assay: in vitro antibacterial evaluation, MIC by broth dilution; assay type: cell-based; conditions: broth dilution, 18 hours at 35° C.
Summary of the method: (§1)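 MIC = lowest antibiotic concentration preventing visible growth; inoculum 5×10^5 CFU/mL; drug range 64-0.06 μg/mL; Muller-Hinton II […]; NCCLS M7-A2 guidance.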

Escherichia coli = assay: as above; assay type: cell-based; conditions: 18 hours at 35° C.
Summary of the method: as §1

Staphylococcus sp. = assay: as above; assay type: cell-based; conditions: broth dilution, 18 hours at 35° C.
Summary of the method: as §1

Streptococcus sp. = assay: as above; assay type: cell-based; conditions: broth dilution, 18 hours at 35° C.
Summary of the method: as §1

[1] = system: Enterococcus faecalis (GC 6189); assay: acute lethal infection in mice; assay type: in vivo; conditions: female CD-1 mice, intraperitoneal challenge, intravenous 30 min. after infection, 7 day survival
Summary of the method: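 Female CD-1 mice (20±2 g) got an intraperitoneal bacterial challenge lethal to untreated controls within 24–48 hr. Compound was dosed intravenously 30 min after infection, five mice per dose. ED50 was calculated from 7-day survival pooled across 3 tests.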

CCC(CC)C1OCC2OC(OC3C(CO)OC(Oc4ccc(CC5NC(=O)C(C(C)c6ccccc6)NC(=O)CNC(=O)C(CO)NC(=O)C(C(O)C6CNC(=N)N6C6OC(CO)C(O)C(O)C6O)NC(=O)C(C(O)C6CNC(=N)N6)NC5=O)cc4)C(O)C3O)C(O)C(O)C2O1 (stereo not drawn) [Example 116, Cyclo[glycyl-β-methylphenylalanyl-O-[4-O-[4,6-O-(2-ethylbutylidene)hexopyranosyl]-hexopyranosyl]tyrosyl-3-(2-iminoimidazolidin-4-yl)seryl-3-(3-hexopyranosvl-2-iminoimidazolidin-4-yl)serylseryl]]
64 µg/mL: MIC Escherichia coli (GC 4559) (Escherichia coli; strain GC 4559)
32 µg/mL: MIC Escherichia coli (ATCC 25922) (Escherichia coli; strain ATCC 25922)
0.25 µg/mL: MIC Streptococcus agalactiae (GC 4564) (Streptococcus sp.; Streptococcus agalactiae (GC 4564)) | MIC Streptococcus pyogenes (GC 4563) (Streptococcus sp.; Streptococcus pyogenes (GC 4563)) | MIC Streptococcus pyogenes (GC 4563) (Streptococcus sp.; strain GC 4563) | MIC Streptococcus agalactiae (GC 4564) (Streptococcus sp.; strain GC 4564)
1 µg/mL: MIC Escherichia coli (GC 4560) (Escherichia coli; strain GC 4560) | MIC Coagulase Negative Staphylococcus (GC 4547) (Staphylococcus sp.) | MIC Coagulase Negative Staphylococcus (GC 4548) (Staphylococcus sp.) | MIC Coagulase Negative Staphylococcus (GC 4549) (Staphylococcus sp.) | MIC Coagulase Negative Staphylococcus (GC 4551) (Staphylococcus sp.) | MIC Staphylococcus aureus (ATCC 29213) (Staphylococcus sp.) | MIC Staphylococcus aureus (GC 1131) (Staphylococcus sp.) | MIC Staphylococcus aureus (GC 3051) (Staphylococcus sp.) | MIC Staphylococcus aureus (GC 3053) (Staphylococcus sp.) | MIC Staphylococcus aureus (GC 4541) (Staphylococcus sp.) | MIC Staphylococcus aureus (GC 4544) (Staphylococcus sp.) | MIC Staphylococcus aureus (GC 4545) (Staphylococcus sp.) | MIC Staphylococcus aureus-SMITH (GC 4543) (Staphylococcus sp.) | MIC Staphylococcus aureus (GC 1131) (Staphylococcus sp.; inoculum 5×10^5 CFU/mL, strain GC 1131) | MIC Staphylococcus aureus (ATCC 29213) (Staphylococcus sp.; strain ATCC 29213) | MIC Staphylococcus aureus (GC 3051) (Staphylococcus sp.; strain GC 3051) | MIC Staphylococcus aureus (GC 3053) (Staphylococcus sp.; strain GC 3053) | MIC Staphylococcus aureus (GC 4541) (Staphylococcus sp.; strain GC 4541) | MIC Staphylococcus aureus (GC 4544) (Staphylococcus sp.; strain GC 4544) | MIC Staphylococcus aureus (GC 4545) (Staphylococcus sp.; strain GC 4545) | MIC Coagulase Negative Staphylococcus (GC 4547) (Staphylococcus sp.; strain GC 4547) | MIC Coagulase Negative Staphylococcus (GC 4548) (Staphylococcus sp.; strain GC 4548) | MIC Coagulase Negative Staphylococcus (GC 4549) (Staphylococcus sp.; strain GC 4549) | MIC Coagulase Negative Staphylococcus (GC 4551) (Staphylococcus sp.; strain GC 4551) | MIC Staphylococcus aureus-SMITH (GC 4543) (Staphylococcus sp.; strain SMITH GC 4543)
<0.06 µg/mL: MIC Streptococcus pneumoniae (ATCC 6301) (Streptococcus sp.; Streptococcus pneumoniae (ATCC 6301)) | MIC Streptococcus pneumoniae (GC 1894) (Streptococcus sp.; Streptococcus pneumoniae (GC 1894)) | MIC Streptococcus pneumoniae (GC 4565) (Streptococcus sp.; Streptococcus pneumoniae (GC 4565)) | MIC Streptococcus pneumoniae (ATCC 6301) (Streptococcus sp.; strain ATCC 6301) | MIC Streptococcus pneumoniae (GC 1894) (Streptococcus sp.; strain GC 1894) | MIC Streptococcus pneumoniae (GC 4565) (Streptococcus sp.; strain GC 4565)
2 µg/mL: MIC Enterococcus avium (GC 4558) (Enterococcus sp.; Enterococcus avium (GC 4558)) | MIC Enterococcus faecalis (ATCC 29212) (Enterococcus sp.; Enterococcus faecalis (ATCC 29212)) | MIC Enterococcus faecalis (GC 2242) (Enterococcus sp.; Enterococcus faecalis (GC 2242)) | MIC Enterococcus faecalis (GC 2691) (Enterococcus sp.; Enterococcus faecalis (GC 2691)) | MIC Enterococcus faecalis (GC 3059) (Enterococcus sp.; Enterococcus faecalis (GC 3059)) | MIC Enterococcus faecalis (GC 4552) (Enterococcus sp.; Enterococcus faecalis (GC 4552)) | MIC Enterococcus faecalis (GC 4553) (Enterococcus sp.; Enterococcus faecalis (GC 4553)) | MIC Enterococcus faecalis (GC 4554) (Enterococcus sp.; Enterococcus faecalis (GC 4554)) | MIC Enterococcus faecalis (GC 6189) (Enterococcus sp.; Enterococcus faecalis (GC 6189)) | MIC Enterococcus faecium (GC 2243) (Enterococcus sp.; Enterococcus faecium (GC 2243)) | MIC Enterococcus faecium (GC 4556) (Enterococcus sp.; Enterococcus faecium (GC 4556)) | MIC Enterococcus faecium (GC 4557) (Enterococcus sp.; Enterococcus faecium (GC 4557)) | MIC Enterococcus faecalis (ATCC 29212) (Enterococcus sp.; strain ATCC 29212) | MIC Enterococcus faecalis (GC 2242) (Enterococcus sp.; strain GC 2242) | MIC Enterococcus faecium (GC 2243) (Enterococcus sp.; strain GC 2243) | MIC Enterococcus faecalis (GC 2691) (Enterococcus sp.; strain GC 2691) | MIC Enterococcus faecalis (GC 3059) (Enterococcus sp.; strain GC 3059) | MIC Enterococcus faecalis (GC 4552) (Enterococcus sp.; strain GC 4552) | MIC Enterococcus faecalis (GC 4553) (Enterococcus sp.; strain GC 4553) | MIC Enterococcus faecalis (GC 4554) (Enterococcus sp.; strain GC 4554) | MIC Enterococcus faecium (GC 4556) (Enterococcus sp.; strain GC 4556) | MIC Enterococcus faecium (GC 4557) (Enterococcus sp.; strain GC 4557) | MIC Enterococcus avium (GC 4558) (Enterococcus sp.; strain GC 4558) | MIC Enterococcus faecalis (GC 6189) (Enterococcus sp.; strain GC 6189)
0.46 mg/kg: median effective dose (ED50), Enterococcus faecalis (GC 6189) [1]
0.5 µg/mL: MIC Coagulase Negative Staphylococcus (GC 6257) (Staphylococcus sp.) | MIC Staphylococcus aureus (GC 4542) (Staphylococcus sp.) | MIC Staphylococcus haemolyticus (GC 4546) (Staphylococcus sp.) | MIC Staphylococcus aureus (GC 4542) (Staphylococcus sp.; strain GC 4542) | MIC Staphylococcus haemolyticus (GC 4546) (Staphylococcus sp.; strain GC 4546) | MIC Coagulase Negative Staphylococcus (GC 6257) (Staphylococcus sp.; strain GC 6257)
